Assay type in all cases: physicochemical
The nature of data set [1]: Chemical stability test: residual rate measurement by HPLC after storage. The note with it: for Residual rate (%): versus sample stored at −20° C. As for the experimental part: The chemical stability of crystals of ditosylate, dibesylate, pentahydrate and monoacetate of Compound A was measured by the following method and conditions.
About 1.5 to 3 mg of a test compound was weighed in a lab tube and stored under the following conditions.
After storage, the residual rate (%) of the stored sample under each condition was calculated by HPLC based on the area percentage of main medicine of the sample stored at −20° C. In addition, appearance was visually observed and compared with the sample stored at −20° C. […]
Comparison object of each sample was stored at −20° C.
An evaluation sample (0.8 mg) was dissolved in a mixed solution of acetonitrile/100 mM NaClO4 […] about 0.8 mL (sample concentration: 1.0 mg/mL) acetonitrile/100 mmol/L NaClO4 aq. (pH3.0) (3/1) to prepare a solution of 1.0 mg/mL (concentration as salt).
Detector: Ultraviolet absorptiometer (measurement wavelength: 265 nm)
Column: SPELCO Ascentis Express (150 mm×4.6 mm, S-2.7 μm)
Column temperature: 25° C.
Mobile phase: Solution A: 100 mmol/L NaClO4 aq. (pH 3.0), Solution B: acetonitrile
Area measurement range: 34.6 minutes

A short description of data set [2]: Hygroscopicity evaluation (isotherm adsorption curve). Conditions: 25° C., relative humidity in the range of 5% to 70%. As for the experimental part:
The isotherm adsorption curve was measured under the following conditions. Ditosylate, monoacetate and pentahydrate of Compound A were measured under Condition 1, and besylate of […] was measured under Condition 2.
Measurement temperature: 25° C.
Measurement range: Relative humidity of 5 to 95%
Measurement interval: Relative humidity of 5%
Measurement range: Relative humidity of 0 to 95%

A short description of data set [3]: Physical stability: powder X-ray measurement before and after storage. Conditions: 25° C.-60% RH, 2 months. The method, then:
The physical stability of monoacetate and ditosylate of Compound A was measured by the following method and conditions.
Test compounds were respectively weighed in a lab tube at about 20 mg for monoacetate and about 40 mg for ditosylate, and stored under the following conditions.
Device: D8 DISCOVER with GADDS manufactured by BRUKER axs

Setting [4] is: crystals stored at 40° C. for 2 months.
[5] abbreviates: crystals stored at 40° C.-75% RH (opened) for 2 months.
[6] abbreviates: crystals stored at 60° C. for 1 month.

Structures are written as SMILES.

As to `CS(=O)(=O)N1CCN([C@H]2C[C@@H](C(=O)Nc3ccc(C(=O)O)cc3)N(C(=O)c3ccc(C(=N)N)cc3)C2)CC1` [Monoacetate, 4-({(4S)-1-(4-Carbamimidoylbenzoyl)-4-[4-(methylsulfonyl)piperazin-1-yl]-L-prolyl}amino) benzoic acid monoacetate], the “Residual rate (%)” value in data set [1] (crystals stored at 40° C. for 2 months, monoacetate) is on record as 99%; in data set [1] (crystals stored at 40° C.-75% RH (opened) for 2 months, monoacetate), 95%; in data set [1] (crystals stored at 60° C. for 1 month, monoacetate) it was 97.5%. Also, the weight gain in data set [2] (listed as monoacetate of Compound A, monoacetate) came out at 6.4 wt %. Moreover, the “change of powder X-ray diffraction spectrum before and after storage” value in data set [3] is “change in the spectra was recognized”.
In the case of `CS(=O)(=O)N1CCN([C@H]2C[C@@H](C(=O)Nc3ccc(C(=O)O)cc3)N(C(=O)c3ccc(C(=N)N)cc3)C2)CC1.Cc1ccc(S(=O)(=O)O)cc1` [Ditosylate, 4-({(4S)-1-(4-Carbamimidoylbenzoyl)-4-[4-(methylsulfonyl)piperazin-1-yl]-L-prolyl}amino) benzoic acid di(4-toluenesulfonate)], the “Residual rate (%)” value in data set [1] (setting [4]) was 100%; in data set [1] (setting [5]), 99.3%; in data set [1] (setting [6]), 100%. For the same compound, the weight gain in data set [2] worked out at 1.5 wt %. Also, in data set [3], the “change of powder X-ray diffraction spectrum before and after storage” value is listed as “no significant peak change was recognized”.
Regarding `CS(=O)(=O)N1CCN([C@H]2C[C@@H](C(=O)Nc3ccc(C(=O)O)cc3)N(C(=O)c3ccc(C(=N)N)cc3)C2)CC1.O=S(=O)(O)c1ccccc1` [Dibesylate, 4-({(4S)-1-(4-Carbamimidoylbenzoyl)-4-[4-(methylsulfonyl)piperazin-1-yl]-L-prolyl}amino) benzoic acid dibenzenesulfonate], the “Residual rate (%)” value in data set [1] (setting [5]) was 99.5%; in data set [1] (setting [6]), 100%. This compound showed a weight gain in data set [2] of 1.9 wt %.
Regarding `CS(=O)(=O)N1CCN([C@H]2C[C@@H](C(=O)Nc3ccc(C(=O)O)cc3)N(C(=O)c3ccc(C(=N)N)cc3)C2)CC1` [Pentahydrate, 4-({(4S)-1-(4-Carbamimidoylbenzoyl)-4-[4-(methylsulfonyl)piperazin-1-yl]-L-prolyl}amino) benzoic acid pentahydrate], the “Residual rate (%)” value in data set [1] (setting [4]) is listed as 36.3%; in data set [1] (setting [5]), 37%; in data set [1] (setting [6]), 23.1%. Further, the “residual rate” value in data set [1] (under the conditions of 40° C.-75%) is recorded as “reduced residual rate”. Moreover, the weight gain in data set [2] (listed as pentahydrate of Compound A) was 12.2 wt %.

For the origin of these results see patent publication US20210371379A1, “NOVEL SALT OF 4-({(4S)-1-(4-CARBAMIMIDOYLBENZOYL)-4-[4(METHYLSULFONYL)PIPERAZIN-1-YL]-L-PROLYL}AMINO) BENZOIC ACID AND NOVEL CRYSTAL FORM THEREOF” (ONO PHARMACEUTICAL CO., LTD., priority 2018, published 2021).
